The record followed here is patent publication US8940730B2, “Methods and compositions of treating a Flaviviridae family viral infection” (The Board of Trustees of the Leland Stanford Junior …, priority 2007, dated 2015).

For one data set, the system named is Huh7.5 cells. The following applies: human, 3 days. The procedure: (§1) 1) Wash cells once with PBS, trypsinize. […] Mix twice by pipeting. […] Make a common stock from all tubes. […] 15) Incubate for 24 hr before treatment.
(§2) 3) Repeat daily for 2 more days.
1) Alamar blue assay—a) Include medium for background subtraction (and also for seeing change in color easily). b) Aspirate medium. c) Make a stock of medium plus 10% Alamar blue. Total volume per well is 100 μl. d) Incubate for 2-2.5 hrs at 37° C. (or until there is a color change). c) Read plates at flex station.

Data set [1] has as its system HCV genotype 2a infectious clone. Put plainly: HCV genotype 2a infectious clone assay (Renilla luciferase). In kind it is cell-based. The following applies: Hepatitis C virus, read-out: 2a (% activity @ 5 μM), 5 μM; % replication activity of control with no test compound. The procedure:
The assays in parts A and B were used to generate the genotype 1b inhibitory activity and related cell toxicity (viability) data supported herein. This assay has been used to generate the genotype 2a inhibitory activity data supported herein.
as §1, §2

The subject of another data set is Huh7 cell line. Put plainly: MTT assay for HCV replicon reporter cell lines (cell toxicity). Type of data set: cell-based. Particulars: Homo sapiens, Huh-7; cell toxicity, MTT, top concentration 25 μM; read-out: Cell Viability EC50. (In general: Tetrazolium assays rely on reduction of a dye to a coloured formazan, in cell work by metabolically active cells.)
A further data set concerns HCV 1b RNA replicon. Put plainly: Luciferase assay for HCV genotype 1b replicon reporter cell lines. Particulars: Hepatitis C virus, Huh-7, 48 h, read-out: 1b EC50, 1b replicon, Huh7, 48 hours, top concentration 25 μM. In general terms: In antiviral work, replicon cells carry a viral genome segment that copies itself.

On to `COC(=O)C1CCCCN1CCCOc1nn(Cc2ccc(Cl)cc2)c2ccccc12` (stereo not drawn) [EBP505], for which, in the data set on Huh7.5 cells, the “2a cell viability (@ 5 μM)” value worked out at 94%. Also, in data set [1], the activity at 5 µM was found to be 87%.

As to `Cc1ccc2c(c1)c(OCCN1CCCC1)nn2Cc1ccccc1` [EBP181], the “2a cell viability (@ 5 μM)” value with Huh7.5 cells is listed as 100%. Further, the activity at 5 µM in data set [1] came to 58%.

On to `CCOC(=O)[C@@H]1CCCN1CCCOc1nn(Cc2ccc(Cl)cc2)c2ccccc12` [EBP512], for which the “2a cell viability (@ 5 μM)” value in the data set on Huh7.5 cells came to 100%. The activity at 5 µM in data set [1] turned out to be 78%.

Regarding `Clc1ccc(Cn2nc(OCCN3CCC[C@H]3CN3CCCC3)c3ccccc32)cc1` [EBP403], the results for the EC50 with Huh7 cell line and in the data set with HCV 1b RNA replicon were more than 25 µM and 3.8 µM, respectively. Further, the “2a cell viability (@ 5 μM)” value in the data set with Huh7.5 cells was 97%. In addition, the activity at 5 µM in data set [1] was determined as 50%.

As for `Cc1ccc2c(c1)c(OCCN(C)C)nn2Cc1ccccc1` [EBP182], the “2a cell viability (@ 5 μM)” value in the data set with Huh7.5 cells stood at 100%. For the same molecule, in data set [1], the activity at 5 µM is 82%.

As to `NC(=O)[C@@H]1CCCN1CCCOc1nn(Cc2ccc(Cl)cc2)c2ccccc12` [EBP385], in the data set on Huh7.5 cells, the “2a cell viability (@ 5 μM)” value worked out at 100%. The activity at 5 µM in data set [1] turned out to be 75%.

Consider `Clc1cccc(Cn2nc(OCCN3CCCC3)c3ccccc32)c1` [EBP334], for which the “2a cell viability (@ 5 μM)” value in the data set on Huh7.5 cells was determined as 100%. The activity at 5 µM in data set [1] amounted to 69%.

Consider `CN(C)CCOc1nn(CCc2ccc(Cl)cc2)c2ccccc12` [EBP332], for which the “2a cell viability (@ 5 μM)” value with Huh7.5 cells turned out to be 100%. For the same molecule, the activity at 5 µM in data set [1] turned out to be 66%.

For `Clc1ccc(Cn2nc(OCCN3CCCC3)c3ccccc32)cc1` [EBP333], in the data set with Huh7.5 cells, the “2a cell viability (@ 5 μM)” value is on record as 97%. In addition, in data set [1], the activity at 5 µM stood at 56%.

Consider `OCC1CCCCN1CCCOc1nn(Cc2ccc(Cl)cc2)c2ccc(Cl)cc12` (stereo not drawn) [EBP503], for which the EC50 in the data set on Huh7 cell line is more than 25 µM; with HCV 1b RNA replicon, 7.2 µM. Besides, the “2a cell viability (@ 5 μM)” value with Huh7.5 cells came out at 86%. Moreover, the activity at 5 µM in data set [1] stood at 36%.

Take `c1ccc2c(c1)c(OCCN1CCCC1)nn2CC1CCCCC1` [EBP339]: the “2a cell viability (@ 5 μM)” value in the data set with Huh7.5 cells is on record as 100%. For the same molecule, the activity at 5 µM in data set [1] was 69%.

In the case of `c1ccc(Cn2nc(OCCN3CCCCC3)c3ccccc32)cc1` [EBP175], the “2a cell viability (@ 5 μM)” value in the data set with Huh7.5 cells is on record as 98%. The activity at 5 µM in data set [1] came out at 89%.

Turning to `COc1ccc(COc2nn(Cc3ccc(OC)cc3)c3ccccc23)cc1` [EBP330], the “2a cell viability (@ 5 μM)” value in the data set with Huh7.5 cells was 100%. Further, the activity at 5 µM in data set [1] worked out at 75%.

In the case of `C[C@@H](COc1nn(Cc2ccc(Cl)cc2)c2ccccc12)CN1CCC[C@H]1CO` [EBP449], the “2a cell viability (@ 5 μM)” value with Huh7.5 cells is given as 99%. In addition, the activity at 5 µM in data set [1] came out at 83%.

`O=C(O)C[C@@H]1CCCN1CCCOc1nn(Cc2ccc(Cl)cc2)c2ccccc12` [EBP508]: in the data set on Huh7.5 cells, the “2a cell viability (@ 5 μM)” value came out at 100%. The activity at 5 µM in data set [1] came to 77%.

In the case of `COc1ccc(Cn2nc(OCCCN3CCCCC3)c3ccccc32)cc1` [EBP328], the “2a cell viability (@ 5 μM)” value in the data set with Huh7.5 cells is on record as 100%. Also, the activity at 5 µM in data set [1] worked out at 71%.

With `c1ccc(Cn2nc(OCCCN3CCCCC3)c3ccccc32)cc1` [EBP192], the “2a cell viability (@ 5 μM)” value in the data set with Huh7.5 cells was 88%. The activity at 5 µM in data set [1] is 50%.

Turning to `COc1ccc(Cn2nc(OCCCN3CCCC3)c3ccccc32)cc1` [EBP327], the “2a cell viability (@ 5 μM)” value in the data set on Huh7.5 cells is listed as 98%. For the same molecule, the activity at 5 µM in data set [1] is 89%.

On to `Cc1ccc2c(c1)c(OCCCN(C)C)nn2Cc1ccccc1` [EBP151], for which the “2a cell viability (@ 5 μM)” value with Huh7.5 cells is on record as 92%. In addition, the activity at 5 µM in data set [1] was found to be 62%.

As for `Cc1ccc2c(c1)c(OCCCN1CCCC1)nn2Cc1ccccc1` [EBP178], in the data set with Huh7.5 cells, the “2a cell viability (@ 5 μM)” value turned out to be 92%. The activity at 5 µM in data set [1] was 25%.

Take `COC(=O)[C@@H]1CC[C@H](O)N1CCCOc1nn(Cc2ccc(Cl)cc2)c2ccccc12` [EBP507]: in the data set on Huh7.5 cells, the “2a cell viability (@ 5 μM)” value came to 90%. Besides, the activity at 5 µM in data set [1] was 87%.

Regarding `CC(C)(C)OC(=O)N1CCC(Cn2nc(OCCN3CCCC3)c3ccccc32)CC1` [EBP340], the “2a cell viability (@ 5 μM)” value in the data set on Huh7.5 cells amounted to 98%. Further, the activity at 5 µM in data set [1] was found to be 62%.
